Results: the NIST ThermoML archive (doi:10.1016/j.tca.2011.02.043)
Numbers after ± are expanded uncertainties.

Experiments:
[1] = DTA
[2] = Molar enthalpy of transition or fusion; settings: DSC
[3] = molar heat capacity at constant pressure; settings: 101.33 kPa, Small sample (50 mg) DSC

[BH4-].[Li+] [lithium tetrahydroborate]
Settings | Molar enthalpy of transition or fusion, [2] [kcal/mol] | Triple point temperature, [1] [K]
Crystal 1 | 1.96 ± 0.153 | 553 ± 1
Crystal 2 | 1.21 ± 0.0574 | 386.6 ± 0.5

[3]
Settings | molar heat capacity at constant pressure [J/K/mol]
298 K, Crystal 2 | 81.51 ± 4.2
310 K, Crystal 2 | 84.51 ± 4.4
320 K, Crystal 2 | 87.33 ± 4.5
330 K, Crystal 2 | 89.53 ± 4.7
340 K, Crystal 2 | 91.21 ± 4.7
350 K, Crystal 2 | 92.47 ± 4.8
360 K, Crystal 2 | 95.46 ± 5
370 K, Crystal 2 | 101.2 ± 5.3
380 K, Crystal 2 | 106.02 ± 5.5
410 K, Crystal 1 | 91.06 ± 4.7
420 K, Crystal 1 | 91.83 ± 4.8
430 K, Crystal 1 | 93.09 ± 4.8
440 K, Crystal 1 | 94.12 ± 4.9
450 K, Crystal 1 | 95.43 ± 5
460 K, Crystal 1 | 96.7 ± 5
470 K, Crystal 1 | 97.95 ± 5.1
480 K, Crystal 1 | 99.14 ± 5.2
490 K, Crystal 1 | 100.69 ± 5.2
500 K, Crystal 1 | 101.9 ± 5.3
510 K, Crystal 1 | 103.3 ± 5.4
520 K, Crystal 1 | 104.78 ± 5.4
